Experimental data from patent publication US7192906B2, “Substituted pyrazole derivatives, production process thereof, and herbicide compositions containing the derivatives” (SDS Biotech K.K., priority 2001, dated 2007).

Key:
Format in all cases: in vivo
Echinochloa crusgalli = assay: Test Example 3 paddy field treatment; settings: active ingredient 1 kg per hectare, index 0-5
Experimental: (§1) A plastic pot of 130 cm^2 was filled with paddy soil, and soil puddling was carried out to adjust the submerged depth to 4 cm. Subsequently, seeds of Echinochloa crusgalli, Monochoria vaginalis, Ammannia multiflora and Scirpus juncoides were sowed, and rice (Oryza sative, variety: Koshihikari) of two-leaf period was transplanted by 2 rice plants of 1 stub per pot at a depth of 3 cm. On the 10th day after the transplantation, the wettable powder prepared in Formulation Example 1 was diluted with water such that the amount of the active ingredient became 1 kg per hectare, and then dropped to diffuse on the water surface. On the 21st day after the dropping, observation and evaluation were carried out according to the aforesaid criteria.
(§2) Herbicidal activity was evaluated based on the following criteria.
(§3) • 5: herbicidal effect of not less than 90%, or phytotoxicity of 90% or more • 4: herbicidal effect of not less than 70% and less than 90%, or phytotoxicity of 70% or more and less than 90% • 3: herbicidal effect of not less than 50% and less than 70%, or phytotoxicity of 50% or more and less than 70% • 2: herbicidal effect of not less than 30% and less than 50%, or phytotoxicity of 30% or more and less than 50% • 1: herbicidal effect of not less than 10% and less than 30%, or phytotoxicity of 10% or more and less than 30% • 0: herbicidal effect of not less than 0% and less than 10%, or phytotoxicity of 0% or more and less than 10%

Monochoria vaginalis = assay: Test Example 3 paddy field treatment; settings: active ingredient 1 kg per hectare, index 0-5
Experimental: as §1, §2, §3

Scirpus juncoides = assay: Test Example 3 paddy field treatment; settings: active ingredient 1 kg per hectare, index 0-5
Experimental: as §1, §2, §3

Ammannia multiflora = assay: Test Example 3 paddy field treatment; settings: active ingredient 1 kg per hectare, index 0-5
Experimental: as §1, §2, §3

Rice (Oryza sativa) = assay: Test Example 3 paddy field treatment, crop phytotoxicity; settings: active ingredient 1 kg per hectare, index 0-5; for Herbicidal activity OS (phytotoxicity to rice): paddy field treatment, transplanted rice Koshihikari, wettable powder, 21st day after the dropping; for Herbicidal activity (phytotoxicity) OS: Table 6, paddy field treatment, transplanted rice, 21st day after dropping
Experimental: as §1, §2, §3

Setaria viridis = assay: Test Example 1 upland field foliage treatment; settings: Table 4, upland field foliage treatment, index 0-5
Experimental: (§4) A plastic pot of 130 cm^2 was filled with upland soil. Subsequently, weed seeds of Setaria viridis, Digitaria adscendens, Chenopodium album and Stellaria media, and crop seeds of soybean (Glycine max) and wheat (Triticum aestivum), were sowed and covered with soil of about 1 cm thickness. On the 14th day after the sowing, the wettable powder prepared in Formulation Example 1 was diluted with water such that the amount of the active ingredient became 1 kg per hectare, and then uniformly applied to the plant leaf surfaces. On the 21st day after the application, observation and evaluation were carried out according to the criteria described below.
as §2, §3

Chenopodium album = assay: Test Example 1 upland field foliage treatment; settings: Table 4, upland field foliage treatment, index 0-5
Experimental: as §4, §2, §3

Stellaria media = assay: Test Example 1 upland field foliage treatment; settings: Table 4, upland field foliage treatment, index 0-5
Experimental: as §4, §2, §3

Digitaria adscendens = assay: Test Example 1 upland field foliage treatment; settings: Table 4, upland field foliage treatment, index 0-5
Experimental: as §4, §2, §3

soybean (Glycine max) = assay: Test Example 1 upland field foliage treatment, crop phytotoxicity; settings: Table 4, upland field foliage treatment, index 0-5
Experimental: as §4, §2, §3

[1] = test system: wheat (Triticum aestivum); assay: as above; settings: Table 4, upland field foliage treatment, index 0-5
Experimental: as §4, §2, §3

[2] = paddy field treatment, wettable powder, 21st day after the dropping
[3] = Table 6, paddy field treatment, 21st day after dropping

Row | SMILES | Herbicidal activity EC (Echinochloa crusgalli; [2]) | Herbicidal activity MV (Monochoria vaginalis; [2]) | Herbicidal activity SJ (Scirpus juncoides; [2]) | Herbicidal activity AM (Ammannia multiflora; [2]) | Herbicidal activity OS (phytotoxicity to rice) (Rice (Oryza sativa)) | Herbicidal activity EC (Echinochloa crusgalli; [3]) | Herbicidal activity MV (Monochoria vaginalis; [3]) | Herbicidal activity SJ (Scirpus juncoides; [3]) | Herbicidal activity AM (Ammannia multiflora; [3]) | Herbicidal activity (phytotoxicity) OS (Rice (Oryza sativa)) | further results
1 | CON=C(Cn1cc(C)c(-c2ccccc2)n1)C(=O)NC(C)c1ccccc1 (stereo not shown) [Compound 31] | 3 (herbicidal effect of not less than 50% and less than 70%, or phytotoxicity of 50% or more and less than 70%) | 5 (herbicidal effect of not less than 90%, or phytotoxicity of 90% or more) | 4 (herbicidal effect of not less than 70% and less than 90%, or phytotoxicity of 70% or more and less than 90%) | 4 (herbicidal effect of not less than 70% and less than 90%, or phytotoxicity of 70% or more and less than 90%) | 0 (herbicidal effect of not less than 0% and less than 10%, or phytotoxicity of 0% or more and less than 10%) | – | – | – | – | – | –
2 | CNC(=O)C(Cn1cc(C)c(-c2ccccc2C)n1)=NOC [Compound 35] | 5 (herbicidal effect of not less than 90%, or phytotoxicity of 90% or more) | 4 (herbicidal effect of not less than 70% and less than 90%, or phytotoxicity of 70% or more and less than 90%) | 4 (herbicidal effect of not less than 70% and less than 90%, or phytotoxicity of 70% or more and less than 90%) | 4 (herbicidal effect of not less than 70% and less than 90%, or phytotoxicity of 70% or more and less than 90%) | 0 (herbicidal effect of not less than 0% and less than 10%, or phytotoxicity of 0% or more and less than 10%) | – | – | – | – | – | –
3 | CNC(=O)C(Cn1cc(C)c(-c2ccc(C(C)C)cc2)n1)=NOC [Compound 38] | 5 (herbicidal effect of not less than 90%, or phytotoxicity of 90% or more) | 5 (herbicidal effect of not less than 90%, or phytotoxicity of 90% or more) | 5 (herbicidal effect of not less than 90%, or phytotoxicity of 90% or more) | 5 (herbicidal effect of not less than 90%, or phytotoxicity of 90% or more) | 0 (herbicidal effect of not less than 0% and less than 10%, or phytotoxicity of 0% or more and less than 10%) | – | – | – | – | – | –
4 | CNC(=O)C(Cn1cc(C)c(-c2ccc(C(F)(F)F)cc2)n1)=NOC [Compound 40] | 5 (herbicidal effect of not less than 90%, or phytotoxicity of 90% or more) | 5 (herbicidal effect of not less than 90%, or phytotoxicity of 90% or more) | 5 (herbicidal effect of not less than 90%, or phytotoxicity of 90% or more) | 5 (herbicidal effect of not less than 90%, or phytotoxicity of 90% or more) | 0 (herbicidal effect of not less than 0% and less than 10%, or phytotoxicity of 0% or more and less than 10%) | – | – | – | – | – | –
5 | CNC(=O)C(Cn1cc(C)c(-c2cccc(Br)c2)n1)=NOC [Compound 49] | 5 (herbicidal effect of not less than 90%, or phytotoxicity of 90% or more) | 5 (herbicidal effect of not less than 90%, or phytotoxicity of 90% or more) | 5 (herbicidal effect of not less than 90%, or phytotoxicity of 90% or more) | 5 (herbicidal effect of not less than 90%, or phytotoxicity of 90% or more) | 1 (herbicidal effect of not less than 10% and less than 30%, or phytotoxicity of 10% or more and less than 30%) | – | – | – | – | – | –
6 | CNC(=O)C(Cn1cc(C)c(-c2c(F)cccc2F)n1)=NOC [Compound 58, 2-methoxyimino-3-((2′,6′-difluorophenyl)-4-methyl-pyrazole)-1-yl-propanoic acid-N-methylamide] | – | – | – | – | – | 5 (herbicidal effect of not less than 90%, or phytotoxicity of 90% or more) | 5 (herbicidal effect of not less than 90%, or phytotoxicity of 90% or more) | 5 (herbicidal effect of not less than 90%, or phytotoxicity of 90% or more) | 5 (herbicidal effect of not less than 90%, or phytotoxicity of 90% or more) | 1 (herbicidal effect of not less than 10% and less than 30%, or phytotoxicity of 10% or more and less than 30%) | –
7 | CNC(=O)C(Cn1cc(C)c(-c2cc(F)cc(F)c2)n1)=NOC [Compound 60] | – | – | – | – | – | 5 (herbicidal effect of not less than 90%, or phytotoxicity of 90% or more) | 5 (herbicidal effect of not less than 90%, or phytotoxicity of 90% or more) | 5 (herbicidal effect of not less than 90%, or phytotoxicity of 90% or more) | 5 (herbicidal effect of not less than 90%, or phytotoxicity of 90% or more) | 0 (herbicidal effect of not less than 0% and less than 10%, or phytotoxicity of 0% or more and less than 10%) | –
8 | CNC(=O)C(Cn1cc(C)c(-c2cc(Cl)ccc2Cl)n1)=NOC [Compound 73] | – | – | – | – | – | 5 (herbicidal effect of not less than 90%, or phytotoxicity of 90% or more) | 5 (herbicidal effect of not less than 90%, or phytotoxicity of 90% or more) | 4 (herbicidal effect of not less than 70% and less than 90%, or phytotoxicity of 70% or more and less than 90%) | 4 (herbicidal effect of not less than 70% and less than 90%, or phytotoxicity of 70% or more and less than 90%) | 0 (herbicidal effect of not less than 0% and less than 10%, or phytotoxicity of 0% or more and less than 10%) | –
9 | CNC(=O)C(Cn1cc(C)c(-c2ccc(OC)c(F)c2)n1)=NOC [Compound 76] | – | – | – | – | – | 5 (herbicidal effect of not less than 90%, or phytotoxicity of 90% or more) | 5 (herbicidal effect of not less than 90%, or phytotoxicity of 90% or more) | 5 (herbicidal effect of not less than 90%, or phytotoxicity of 90% or more) | 5 (herbicidal effect of not less than 90%, or phytotoxicity of 90% or more) | 0 (herbicidal effect of not less than 0% and less than 10%, or phytotoxicity of 0% or more and less than 10%) | –
10 | CNC(=O)C(Cn1cc(C)c(-c2ccc(C(F)(F)F)cc2F)n1)=NOC [Compound 85] | – | – | – | – | – | – | – | – | – | – | Herbicidal activity SV: Setaria viridis (Setaria viridis): 4 (herbicidal effect of not less than 70% and less than 90%, or phytotoxicity of 70% or more and less than 90%); Herbicidal activity CA: Chenopodium album (Chenopodium album): 5 (herbicidal effect of not less than 90%, or phytotoxicity of 90% or more); Herbicidal activity SM: Stellaria media (Stellaria media): 5 (herbicidal effect of not less than 90%, or phytotoxicity of 90% or more); Herbicidal activity DA: Digitaria adscendens (Digitaria adscendens): 4 (herbicidal effect of not less than 70% and less than 90%, or phytotoxicity of 70% or more and less than 90%); Herbicidal activity (phytotoxicity) GM: Soybean (Glycine max) (soybean (Glycine max)): 0 (herbicidal effect of not less than 0% and less than 10%, or phytotoxicity of 0% or more and less than 10%); Herbicidal activity (phytotoxicity) TA: Wheat (Triticum aestivum) [1]: 0 (herbicidal effect of not less than 0% and less than 10%, or phytotoxicity of 0% or more and less than 10%)
11 | CNC(=O)C(Cn1cc(C)c(-c2ccc(C(F)(F)F)c(F)c2)n1)=NOC [Compound 87] | – | – | – | – | – | 5 (herbicidal effect of not less than 90%, or phytotoxicity of 90% or more) | 5 (herbicidal effect of not less than 90%, or phytotoxicity of 90% or more) | 5 (herbicidal effect of not less than 90%, or phytotoxicity of 90% or more) | 5 (herbicidal effect of not less than 90%, or phytotoxicity of 90% or more) | 0 (herbicidal effect of not less than 0% and less than 10%, or phytotoxicity of 0% or more and less than 10%) | –
12 | CNC(=O)C(Cn1cc(C)c(-c2ccc(F)c(C(F)(F)F)c2)n1)=NOC [Compound 90] | – | – | – | – | – | 5 (herbicidal effect of not less than 90%, or phytotoxicity of 90% or more) | 5 (herbicidal effect of not less than 90%, or phytotoxicity of 90% or more) | 4 (herbicidal effect of not less than 70% and less than 90%, or phytotoxicity of 70% or more and less than 90%) | 5 (herbicidal effect of not less than 90%, or phytotoxicity of 90% or more) | 0 (herbicidal effect of not less than 0% and less than 10%, or phytotoxicity of 0% or more and less than 10%) | –
